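Dose response: 5 concentrations. Exposure: 48 h. Format: 96-well plates. Endpoint: linear interpolation; highest concentration if not reached. GI50 is the concentration that inhibits growth by half. Definition used: TGI = concentration required for complete inhibition of growth.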
Legend:
Assay in all cases: growth of human tumour cells (NCI), 48 h
[1] = test system: SK-MEL-2 melanoma
[2] = test system: MDA-MB-231 breast
[3] = test system: SK-MEL-28 melanoma
[4] = test system: OVCAR-5 ovarian
[5] = test system: SF-268 CNS
[6] = test system: NCI-H522 lung
[7] = test system: LOX IMVI melanoma
[8] = test system: HT29 colon
[9] = test system: HS 578T breast
[10] = test system: KM12 colon
[11] = test system: NCI-H226 lung
[12] = test system: EKVX NSCLC
[13] = test system: RXF 393 renal
[14] = test system: OVCAR-3 ovarian
[15] = test system: MDA-MB-435
[16] = test system: T-47D breast
[17] = test system: SNB-19 CNS
[18] = test system: HCC-2998 colon
[19] = test system: UACC-62 melanoma
[20] = test system: TK-10 renal
[21] = test system: IGROV1 ovarian
[22] = test system: DU-145 prostate
[23] = test system: NCI-H460 lung
[24] = test system: U251 CNS
[25] = test system: CCRF-CEM leukemia
[26] = test system: SW-620 colon
[27] = test system: SN12C renal
[28] = test system: SF-295 CNS
[29] = test system: SNB-75 CNS
[30] = test system: 786-0 renal
[31] = test system: MOLT-4 leukemia
[32] = test system: HOP-92 NSCLC
[33] = test system: HOP-62 NSCLC
[34] = test system: K-562 leukemia
[35] = test system: A498 renal
[36] = test system: SK-OV-3 ovarian
[37] = test system: UACC-257 melanoma
[38] = test system: OVCAR-4 ovarian
[39] = test system: OVCAR-8 ovarian
[40] = test system: HCT-116 colon
[41] = test system: M14 melanoma
[42] = test system: MCF7 breast
[43] = test system: COLO 205 colon
[44] = test system: NCI/ADR-RES ovarian
[45] = test system: HCT-15 colon
[46] = test system: HL-60(TB) leukemia
[47] = test system: MALME-3M melanoma
[48] = test system: UO-31 renal
[49] = test system: RPMI-8226 leukemia
[50] = test system: BT-549 breast
[51] = test system: SF-539 CNS
[52] = test system: PC-3 prostate
[53] = test system: SK-MEL-5 melanoma
[54] = test system: A549 NSCLC
[55] = test system: ACHN renal
[56] = test system: CAKI-1 renal
[57] = test system: NCI-H23 lung
[58] = test system: SR leukemia

Nc1nccc2c1ccn2-c1ccc(NC(=O)c2ccc(N3CCOCC3)c(C(F)(F)F)c2)cc1
GI50 [1]: 1.11 µM | TGI [1]: 5.49 µM | GI50 [2]: 0.346 µM | TGI [2]: 1.47 µM | GI50 [3]: 1.17 µM | TGI [3]: 14.1 µM | GI50 [4]: 1.64 µM | TGI [4]: 20.6 µM | GI50 [5]: 0.879 µM | TGI [5]: 15.1 µM | GI50 [6]: 1.12 µM | TGI [6]: 6.71 µM | GI50 [7]: 0.331 µM | TGI [7]: 1.48 µM | GI50 [8]: 0.322 µM | TGI [8]: 1.26 µM | GI50 [9]: 0.22 µM | TGI [9]: 0.88 µM | GI50 [10]: 0.557 µM | TGI [10]: 8.5 µM | GI50 [11]: 5.62 µM | TGI [11]: 20 µM | GI50 [12]: 1.69 µM | TGI [12]: 70.2 µM | GI50 [13]: 0.158 µM | TGI [13]: 0.378 µM | GI50 [14]: 1.38 µM | TGI [14]: 15.7 µM | GI50 [15]: 0.69 µM | TGI [15]: 2.99 µM | GI50 [16]: 2.19 µM | TGI [16]: 19.2 µM | GI50 [17]: 0.61 µM | TGI [17]: 8.13 µM | GI50 [18]: 2.98 µM | TGI [18]: 29.1 µM | GI50 [19]: 0.337 µM | TGI [19]: 1.19 µM | GI50 [20]: 1.52 µM | TGI [20]: 9.75 µM | GI50 [21]: 1.56 µM | TGI [21]: 30.4 µM | GI50 [22]: 2.66 µM | TGI [22]: 20.5 µM | GI50 [23]: 0.352 µM | TGI [23]: 1.65 µM | GI50 [24]: 0.341 µM | TGI [24]: 5.19 µM | GI50 [25]: 0.452 µM | TGI [25]: > 100 µM | GI50 [26]: 1.06 µM | TGI [26]: 4.14 µM | GI50 [27]: 4.86 µM | TGI [27]: 20.4 µM | GI50 [28]: 0.204 µM | TGI [28]: 0.515 µM | GI50 [29]: 0.246 µM | TGI [29]: 1.38 µM | GI50 [30]: 0.207 µM | TGI [30]: 0.529 µM | GI50 [31]: 0.318 µM | GI50 [32]: 0.418 µM | TGI [32]: 3.84 µM | GI50 [33]: 0.342 µM | TGI [33]: 1.73 µM | GI50 [34]: 0.687 µM | TGI [34]: > 100 µM | GI50 [35]: 0.402 µM | TGI [35]: 2.94 µM | GI50 [36]: 2.44 µM | TGI [36]: 23.5 µM | GI50 [37]: 2.15 µM | TGI [37]: 8.61 µM | GI50 [38]: 1.96 µM | TGI [38]: 24.6 µM | GI50 [39]: 3.47 µM | TGI [39]: 19.6 µM | GI50 [40]: 0.873 µM | TGI [40]: 11.1 µM | GI50 [41]: 0.622 µM | TGI [41]: 2.54 µM | GI50 [42]: 0.316 µM | TGI [42]: 1.41 µM | GI50 [43]: 0.297 µM | TGI [43]: 0.871 µM | GI50 [44]: 4.87 µM | TGI [44]: 50.9 µM | GI50 [45]: 0.811 µM | TGI [45]: 10.5 µM | GI50 [46]: 0.479 µM | GI50 [47]: 1.58 µM | TGI [47]: 6.71 µM | GI50 [48]: 0.573 µM | TGI [48]: 4.15 µM | GI50 [49]: 0.311 µM | TGI [49]: 2.88 µM | GI50 [50]: 1.03 µM | TGI [50]: 24.7 µM | GI50 [51]: 0.491 µM | TGI [51]: 5.96 µM | GI50 [52]: 0.499 µM | TGI [52]: 17.4 µM | GI50 [53]: 0.944 µM | TGI [53]: 2.28 µM | GI50 [54]: 1.39 µM | TGI [54]: 15.3 µM | GI50 [55]: 0.928 µM | TGI [55]: 16.3 µM | GI50 [56]: 0.484 µM | TGI [56]: 3.45 µM | GI50 [57]: 0.94 µM | TGI [57]: 17.3 µM | GI50 [58]: 0.684 µM | TGI [58]: > 100 µM

Reference: PubChem BioAssay (NCI)
